Assay results from patent US20230026232A1, “AHR INHIBITORS AND USES THEREOF” (Ikena Oncology, Inc., priority 2019, published 2023).
“Also recorded” adds a separate entry of the source.

Experiments:
[1] = Intrinsic dissolution in 0.5% Tween 80; type: physicochemical; details: 0.5% Tween 80, 100 rpm, 37° C.
Experimental: Milled and as-received API samples were weighed and compressed into a compact using a hydraulic press at 3,000 psi for 60 seconds. Compacts were mounted on intrinsic dissolution apparatus and dissolution study was conducted using USP dissolution apparatus in 250 mL of 0.5% Tween 80 solution at 100 rpm at 37° C. in duplicate. Aliquots (1.0 mL) of dissolution media are taken at selected time-points from each dissolution vessel at 5 minute intervals from 5 to 40 minutes. Each sample was centrifuged at 14,000 rpm for 3 minutes and the supernatant was samples and diluted with diluent for HPLC analysis (Table 7). The retention time of Compound A is about 1.5 minutes.
The Intrinsic dissolution performance of the jet-milled API vs. as received API was conducted to observe any increase in dissolution by particle size reduction. FIG. 8 and Table 15 below show the intrinsic dissolution results.

[2] = Phase 1 dose-escalation study: interim cohort pharmacokinetics; type: in vivo, human; details: Cycle 2 Day 1 (C2D1)
Experimental: Serial blood samples are obtained to characterize the plasma PK of Compound A and its major active metabolites. The initial sampling strategy is based on the predicted human PK of this compound. If in the course of evaluating the PK, it is determined that an alternative sampling scheme would be more informative, then that alternative sampling scheme may be implemented if the total amount of blood and blood draws obtained for PK is not increased. Moreover, the total number of samples may be decreased at any time if the initial sampling scheme is considered unnecessarily intensive.
Interim cohort pharmacokinetics were assessed on parent (Compound A) and two active metabolites (Compound B and Compound C). […] Compound B metabolite ratio is increased on C2D1 in cohorts above 200 mg dosages. […] Without wishing to be bound or limited by theory, elimination rate limited kinetics likely contributing to the accumulation of Compound B through on-target inhibition of CYP1A1.

[3] = test system: CT26.WT; test: CT26.WT syngeneic colorectal cancer model, tumor growth, survival and re-challenge; type: in vivo, Balb/cJ mice
Experimental: The effect of single agent Compound A, and Compound A in combination with anti-PD-1 antibody (BioXcell RMP1-14) on TGI and tumor survival was evaluated in the CT26.WT syngeneic model of colorectal cancer. Balb/cJ female mice were inoculated subcutaneously with tumor cells and 4 days after inoculation, Compound A (10 mg/kg or 25 mg/kg) or Vehicle was administered orally QD for a total of 53 doses. Concurrently, anti-PD-1 antibody (10 mg/kg) was administered IP twice a week for a total of 5 doses.
At ≥95 days after the appearance of CRs in mice treated with the combination of Compound A and anti-PD-1 antibody, the responder animals were re-challenged with CT26.WT cells. Five naïve mice were also injected with CT26.WT cells as a positive control for tumor formation.

[4] = target: T1, AHR (Mus musculus, UniProt P30561); test: AHR-dependent Cyp1A1 expression (P450-Glo) in mouse Hepa1.6 cells stimulated with VAF347; type: cell-based; details: read-out: IC50, AHR-dependent expression of Cyp1A1; murine Hepa1.6 cells, 2 μM VAF347, 24 hours, average
T1 sequence (P30561 10-805): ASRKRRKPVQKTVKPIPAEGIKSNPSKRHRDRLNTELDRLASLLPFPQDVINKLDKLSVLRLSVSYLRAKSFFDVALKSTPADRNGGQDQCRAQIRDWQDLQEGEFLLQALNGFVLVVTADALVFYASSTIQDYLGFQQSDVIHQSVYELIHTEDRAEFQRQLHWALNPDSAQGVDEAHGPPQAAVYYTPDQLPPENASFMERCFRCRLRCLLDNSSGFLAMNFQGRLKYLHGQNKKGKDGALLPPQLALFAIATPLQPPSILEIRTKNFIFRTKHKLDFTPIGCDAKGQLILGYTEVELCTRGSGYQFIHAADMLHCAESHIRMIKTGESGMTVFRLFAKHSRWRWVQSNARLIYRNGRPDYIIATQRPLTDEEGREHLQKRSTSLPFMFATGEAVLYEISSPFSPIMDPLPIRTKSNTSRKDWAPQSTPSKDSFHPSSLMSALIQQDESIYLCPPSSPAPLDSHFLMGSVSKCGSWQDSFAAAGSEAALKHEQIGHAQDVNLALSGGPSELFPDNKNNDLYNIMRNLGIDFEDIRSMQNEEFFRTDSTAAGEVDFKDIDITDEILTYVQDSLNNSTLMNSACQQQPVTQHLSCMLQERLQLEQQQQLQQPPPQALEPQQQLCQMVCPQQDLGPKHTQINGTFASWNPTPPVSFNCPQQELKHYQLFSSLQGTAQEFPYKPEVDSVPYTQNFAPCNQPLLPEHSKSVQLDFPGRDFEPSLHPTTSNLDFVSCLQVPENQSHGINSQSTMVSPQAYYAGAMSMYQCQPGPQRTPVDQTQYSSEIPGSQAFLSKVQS
Experimental: The ability of Compound A to inhibit AHR-dependent Cyp1A1 gene expression was examined in vitro by measuring changes in Cyp1A1 enzymatic activity in 2 rodent hepatoma cell lines following AHR agonist stimulation. Mouse Hepa1.6 and rat H411E hepatoma cells were treated with AHR agonists VAF347 and L-kynurenine, respectively, in the presence of Compound A at multiple concentrations for 24 hours. The inhibition of Cyp1A1 expression was subsequently evaluated by measuring Cyp1A1 enzyme activity using P450-Glo assays.

[5] = Nonclinical safety studies incl. 28-day GLP study in rat; type: in vivo; details: rats
Description: The nonclinical safety of Compound A has been evaluated in a series of pharmacological, single-dose and repeated-dose toxicological studies in rodent and non-rodent species including 28-day Good Laboratory Practice (GLP) studies in rat and monkeys. […] All changes were resolved or resolving after 2 weeks of dosing cessation, except for the testicular changes in rats. The nonclinical safety assessment from these studies supports clinical evaluation of Compound A in humans. The initial planned dose of Compound A for this study is 200 mg once daily (QD), based on evaluation of the Compound A nonclinical safety data.

[6] = test system: human T cell; test: Human T cell assays: pro-inflammatory cytokines; type: cell-based
Description: Compound A is a selective AHR antagonist being developed as an orally administered therapeutic. […] Compound A inhibits CYP1A1 and interleukin (IL)-22 gene expression and leads to an increase in pro-inflammatory cytokines, such as IL-2 and IL-9.

CC(C)c1cnn2c(N[C@@H]3CCc4[nH]c5ccccc5c4C3)nc(-c3cncc(F)c3)nc12 [Compound A, (R)—N-(2-(5-fluoropyridin-3-yl)-8-isopropylpyrazolo[1,5-a][1,3,5]triazin-4-yl)-2,3,4,9-tetrahydro-1H-carbazol-3-amine]
IDR (intrinsic dissolution rate) [1]: 0.85 ug/min*cm^2 | dose proportionality of PK [2]: greater than dose proportional | TGI relative to vehicle treated mice ([3]; Compound A 10 mg/kg PO QD (alone or with anti-PD-1 10 mg/kg IP twice a week)): 39.8% | TGI relative to vehicle treated mice ([3]; Compound A 25 mg/kg PO QD (alone or with anti-PD-1 10 mg/kg IP twice a week)): 40.9% | IC50 [4]: 36 nM | noteworthy findings in nonclinical safety studies [5]: non-glandular stomach ulceration and edema; also recorded: seminiferous tubule degeneration and debris in the epididymis lumen | pro-inflammatory cytokines, such as IL-2 and IL-9 [6]: increase
